Key:
FLT3 [1] = target: T1, FLT3 (Homo sapiens, UniProt P36888); test: FLT3 Enzymatic Assay; format: biochemical; conditions: HTRF kinase assay, 1 mM ATP
T1 sequence (P36888 27-993): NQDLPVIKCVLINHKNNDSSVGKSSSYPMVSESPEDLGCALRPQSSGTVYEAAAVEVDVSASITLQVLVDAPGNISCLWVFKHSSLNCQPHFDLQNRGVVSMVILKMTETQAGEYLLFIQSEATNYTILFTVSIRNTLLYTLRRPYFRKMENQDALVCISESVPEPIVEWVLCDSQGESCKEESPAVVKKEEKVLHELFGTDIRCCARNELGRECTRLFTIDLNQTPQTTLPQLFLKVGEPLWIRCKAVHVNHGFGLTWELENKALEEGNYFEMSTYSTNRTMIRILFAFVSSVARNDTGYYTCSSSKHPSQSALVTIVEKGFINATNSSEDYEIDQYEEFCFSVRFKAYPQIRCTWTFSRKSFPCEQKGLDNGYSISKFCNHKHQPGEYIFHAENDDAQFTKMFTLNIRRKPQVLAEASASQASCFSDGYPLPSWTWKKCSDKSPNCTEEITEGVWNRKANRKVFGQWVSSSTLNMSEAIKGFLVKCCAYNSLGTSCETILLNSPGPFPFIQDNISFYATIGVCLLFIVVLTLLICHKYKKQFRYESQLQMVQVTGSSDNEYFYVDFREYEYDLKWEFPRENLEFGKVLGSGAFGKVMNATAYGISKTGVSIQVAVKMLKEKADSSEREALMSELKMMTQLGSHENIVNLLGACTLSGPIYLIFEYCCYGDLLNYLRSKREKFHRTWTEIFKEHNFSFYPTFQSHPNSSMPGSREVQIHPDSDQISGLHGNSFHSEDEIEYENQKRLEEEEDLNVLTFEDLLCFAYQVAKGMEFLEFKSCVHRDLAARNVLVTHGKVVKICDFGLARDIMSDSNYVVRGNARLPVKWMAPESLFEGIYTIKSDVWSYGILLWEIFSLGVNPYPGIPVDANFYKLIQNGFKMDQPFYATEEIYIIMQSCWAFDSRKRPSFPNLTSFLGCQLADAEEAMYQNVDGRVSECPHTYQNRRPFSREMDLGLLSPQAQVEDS
Description: (§1) The kinase assays were carried out at room temperature in assay buffer (HEPES 50 mM, pH 7.0, NaN3 0.02%, BSA 0.01%, Orthovanadate 0.1 mM, DTT 1 mM, MgCl2 10 mM) in a final volume of 10 μL. Testing compounds were prepared by serial dilution in DMSO and transferred to the plate wells by ECHO liquid handler (Labcyte) with 0.5% DMSO in the final assay. […]. Reactions were initiated by the addition of 5 μL ATP in assay buffer. The final 10 μL kinase reaction consists of 0.011 nM FLT3, 1 mM ATP, 500 nM TK Substrate-biotin and SEB reagent 62.5 nM in assay buffer. […] The plates were then sealed and centrifuged at 1800 rpm for 2 minutes. After 60 minutes incubation at room temperature, the product activity was determined by measuring the fluorescence at 620 nm and 665 nm on Pherastar microplate reader (BMG Labtech). A ratio is calculated (665/620 nm) for each well. Wells with DMSO only were served as the positive controls and wells containing no ATP were used as negative controls. IC50 determination was performed by fitting the curve of percent control activity versus the log of the compound concentration using the GraphPad Prism 7.0 software.

FLT3 [2] = test: FLT3 Enzymatic Assay; format: biochemical; conditions: ratio FLT3 IC50 / JH2 V617F binding IC50
Description: as §1

[3] = In Vitro Intrinsic Clearance; format: in vitro ADME; conditions: human liver microsomes, 1 μM compound, NADPH, scaled to human
Description: For in vitro metabolic stability experiments, test compounds were incubated with human liver microsomes at 37° C. The incubation mixture contained test compounds (1 μM), NADPH (2 mM), and human liver microsomes ([…]) in 100 mM phosphate buffer (pH 7.4). The mixture was pre-incubated for 2 min at 37° C. before the addition of NADPH. Reactions were commenced upon the addition of NADPH and quenched with ice-cold methanol at 0, 10, 20, and 30 min. Terminated incubation mixtures were analyzed using LC-MS/MS system. The analytical system consisted of a Shimadzu LC-30AD binary pump system and SIL-30AC autosampler (Shimadzu Scientific Instruments, Columbia, MD) coupled with a Sciex Triple Quad 6500+mass spectrometer from Applied Biosystems (Foster City, CA). […] Mobile phase A consisted of 0.1% formic acid in water, and mobile phase B consisted of 0.1% formic acid in acetonirile. The total LC-MS/MS runtime was 2.75 minutes with a flow rate of 0.75 mL/min. Peak area integrations and peak area ratio calculations were performed using Analyst software (version 1.6.3) from Applied Biosystems.
The in vitro intrinsic clearance, CLint, in vitro, was calculated from the t1/2 of test compound disappearance as CLint, in vitro=(0.693/t1/2)×(1/Cprotein), where Cprotein is the protein concentration during the incubation, and t1/2 was determined by the slope (k) of the log-linear regression analysis of the concentration versus time profiles; thus, t1/2ln2/k. The CLint, in vitro values were scaled to the in vivo values for human by using physiologically based scaling factors, hepatic microsomal protein concentrations (45 mg protein/g liver), and liver weights (21 g/kg body weight). The equation CLint=CLint, in vitro×(mg protein/g liver weight)×(g liver weight/kg body weight) was used. The in vivo hepatic clearance (CLH) was then calculated by using CLint and hepatic blood flow, Q (20 mL·min^−1kg^−1 in humans) in the well-stirred liver model disregarding all binding from CLH (Q×CLint)/(Q+CLint). The hepatic extraction ratio was calculated as CLH divided by Q.

| Structure (SMILES) | IC50 (FLT3 [1]) [nM] | Selectivity FLT3/JH2 V617F (FLT3 [2]) | h-IntCL [3] |
| --- | --- | --- | --- |
| COc1ccc(-c2c(-c3cn(C)nc3OC)[nH]c3ncc4c(c23)n([C@H]2CC[C@@](C)(NC(=O)C3CC3)CC2)c(=O)n4C)cc1 [Example 1, N-((1s,4s)-4-(7-(3-Methoxy-1-methyl-1H-pyrazol-4-yl)-8-(4-methoxyphenyl)-3-methyl-2-oxo-3,6-dihydroimidazo[4,5-d]pyrrolo[2,3-b]pyridin-1(2H)-yl)-1-methylcyclohexyl)cyclopropanecarboxamide] | > 2500 | ***** (***** refers to selectivity of >5000-fold to ≤12500-fold) | ‡ (‡ refers to h-IntCL of <0.7 L/h/kg) |
| [2H]C([2H])([2H])n1cc(-c2[nH]c3ncc4c(c3c2-c2ccc3c(cnn3C([2H])([2H])[2H])c2)n([C@H]2CC[C@@](C)(NC(=O)C3CC3)CC2)c(=O)n4C)c(F)n1 [Example 4, N-((1s,4s)-4-(7-(3-fluoro-1-(methyl-d3)-1H-pyrazol-4-yl)-3-methyl-8-(1-(methyl-d3)-1H-indazol-5-yl)-2-oxo-3,6-dihydroimidazo[4,5-d]pyrrolo[2,3-b]pyridin-1(2H)-yl)-1-methylcyclohexyl)cyclopropanecarboxamide] | 250 to 1250 | *** (*** refers to selectivity of >1500-fold to ≤1750-fold) | ‡ (‡ refers to h-IntCL of <0.7 L/h/kg) |
| [2H]C([2H])([2H])n1ncc2cc(-c3c(-c4cn(CC)nc4F)[nH]c4ncc5c(c34)n([C@H]3CC[C@@](C)(NC(=O)C4CC4)CC3)c(=O)n5C)ccc21 [Example 5, N-((1s,4s)-4-(7-(1-Ethyl-3-fluoro-1H-pyrazol-4-yl)-3-methyl-8-(1-(methyl-d3)-1H-indazol-5-yl)-2-oxo-3,6-dihydroimidazo[4,5-d]pyrrolo[2,3-b]pyridin-1(2H)-yl)-1-methylcyclohexyl)cyclopropanecarboxamide] | 25 to 250 | ** (** refers to selectivity of >500-fold to ≤1500-fold) | ‡ (‡ refers to h-IntCL of <0.7 L/h/kg) |
| [2H]C([2H])([2H])n1cc(-c2[nH]c3ncc4c(c3c2-c2ccc(OC)cc2)n([C@H]2CC[C@@](C)(NC(=O)[C@H]3C[C@H]3F)CC2)c(=O)n4C([2H])([2H])[2H])c(F)n1 [Example 6, (1R,2R)-2-Fluoro-N-((1s,4S)-4-(7-(3-fluoro-1-(methyl-d3)-1H-pyrazol-4-yl)-8-(4-methoxyphenyl)-3-(methyl-d3)-2-oxo-3,6-dihydroimidazo[4,5-d]pyrrolo[2,3-b]pyridin-1(2H)-yl)-1-methylcyclohexyl)cyclopropane-1-carboxamide] | 25 to 250 | ** (** refers to selectivity of >500-fold to ≤1500-fold) | ‡ (‡ refers to h-IntCL of <0.7 L/h/kg) |
| [2H]C([2H])([2H])n1ncc2cc(-c3c(-c4cn(C)nc4OC)[nH]c4ncc5c(c34)n([C@H]3CC[C@@](C)(NC(=O)C4CC4)CC3)c(=O)n5C)ccc21 [Example 2, N-((1s,4s)-4-(7-(3-Methoxy-1-methyl-1H-pyrazol-4-yl)-3-methyl-8-(1-(methyl-d3)-1H-indazol-5-yl)-2-oxo-3,6-dihydroimidazo[4,5-d]pyrrolo[2,3-b]pyridin-1(2H)-yl)-1-methylcyclohexyl)cyclopropanecarboxamide] | 1250 to 2500 | ****** (****** refers to selectivity of >12500-fold) | ‡ (‡ refers to h-IntCL of <0.7 L/h/kg) |
| [2H]C([2H])([2H])n1cc(-c2[nH]c3ncc4c(c3c2-c2ccc(OC)cc2)n([C@H]2CC[C@@](C)(NC(=O)C3CC3)CC2)c(=O)n4C)c(F)n1 [Example 3, N-((1s,4s)-4-(7-(3-fluoro-1-(methyl-d3)-1H-pyrazol-4-yl)-8-(4-methoxyphenyl)-3-methyl-2-oxo-3,6-dihydroimidazo[4,5-d]pyrrolo[2,3-b]pyridin-1(2H)-yl)-1-methylcyclohexyl)cyclopropanecarboxamide] | 250 to 1250 | ** (** refers to selectivity of >500-fold to ≤1500-fold) | ‡ ‡ (‡ ‡ refers to h-IntCL of ≥0.7 L/h/kg to ≤1 L/h/kg) |

— patent US20240190876A1, “Tricyclic Urea Compounds As JAK2 V617F Inhibitors” (Incyte Corporation, priority 2022, published 2024)
